Data: patent US20250034159A1, “INHIBITORS OF EPIDERMAL GROWTH FACTOR RECEPTOR” (ORIC Pharmaceuticals, Inc., priority 2021, published 2025)
Where two headings read alike, the source gives them in different places.

What was measured:
[1] = target: recombinant human EGFR exon 19 deletion/C797S double mutant protein (Homo sapiens (Human), UniProt P00533, C797S/DEL746-750); assay: Biological Activity Assay C: biochemical assay against EGFR exon 19 deletion/C797S protein (EGFR d19/CS)
Summary of the method: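 IC50 values were fitted with a 4-parameter model to reaction slopes taken from 90 kinetic reads spaced 120 s apart. The Phosphosens sensor/ATP working solution was 40 uM/4 mM, and compound was dosed as 16-point dilutions at 2.5% final DMSO.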

Ba/F3_EGFR WT cells = assay: Biological Activity Assay D: BaF3 cell proliferation assay, EGFR wild-type (BaF3 WT); format: cell-based; settings: Ba/F3 EGFR, read-out: BaF3 WT IC50
BaF3_EGFR LR/CS cells = assay: Biological Activity Assay D: BaF3 cell proliferation assay, EGFR L858R/C797S mutant (BaF3 LR/CS); format: cell-based; settings: Ba/F3 EGFR, read-out: BaF3 LR/CS IC50
BaF3_EGFR d19/CS cells = assay: Biological Activity Assay D: BaF3 cell proliferation assay, EGFR exon 19 deletion/C797S (BaF3 d19/CS); format: cell-based; settings: Ba/F3 EGFR, read-out: BaF3 d19/CS IC50
[2] = Ba/F3_EGFR WT cells, ~72 hours, CellTiter-Glo
[3] = BaF3_EGFR LR/CS cells, ~72 hours, CellTiter-Glo
[4] = BaF3_EGFR d19/CS cells, ~72 hours, CellTiter-Glo

Sequence of recombinant human EGFR exon 19 deletion/C797S double mutant protein (P00533 other isoform, or with tags, fused parts or gaps C797S/del 1-668/del 746-750 limits assumed): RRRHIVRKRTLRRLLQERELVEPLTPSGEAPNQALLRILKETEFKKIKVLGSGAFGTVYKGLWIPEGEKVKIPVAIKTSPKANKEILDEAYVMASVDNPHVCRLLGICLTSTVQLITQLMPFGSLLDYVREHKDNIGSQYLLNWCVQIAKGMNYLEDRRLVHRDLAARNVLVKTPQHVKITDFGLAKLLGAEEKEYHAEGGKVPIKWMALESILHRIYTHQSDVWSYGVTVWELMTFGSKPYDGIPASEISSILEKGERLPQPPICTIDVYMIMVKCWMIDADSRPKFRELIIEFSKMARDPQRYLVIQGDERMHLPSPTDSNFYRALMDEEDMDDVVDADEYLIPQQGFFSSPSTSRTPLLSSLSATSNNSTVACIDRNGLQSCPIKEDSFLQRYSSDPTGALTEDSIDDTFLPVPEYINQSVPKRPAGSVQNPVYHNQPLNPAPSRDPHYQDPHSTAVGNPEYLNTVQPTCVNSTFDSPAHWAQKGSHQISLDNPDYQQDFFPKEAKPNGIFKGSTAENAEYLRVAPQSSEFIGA

IC50 [1]	IC50 (Ba/F3_EGFR WT cells; [2])	IC50 (BaF3_EGFR LR/CS cells; [3])	IC50 (BaF3_EGFR d19/CS cells; [4])	SMILES	IC50 (Ba/F3_EGFR WT cells; 72 h)	IC50 (BaF3_EGFR LR/CS cells; 72 h)	IC50 (BaF3_EGFR d19/CS cells; 72 h)
0.206 nM	550 nM	4.53 nM	10.1 nM	Cn1cc(-c2cc3c(-c4cn(CC(C)(C)O)nc4-c4ccc(F)cc4)ncnc3o2)cn1 [Example 261, 1-{3-(4-fluorophenyl)-4-[6-(1-methyl-1H-pyrazol-4-yl)furo[2,3-d]pyrimidin-4-yl]-1H-pyrazol-1-yl}-2-methylpropan-2-ol]			
0.396 nM	4060 nM	78.2 nM	47 nM	CC(C)(O)Cn1cc(-c2ncnc3oc(-c4ccccc4Cl)cc23)c(-c2ccc(F)cc2)n1 [Example 262, 1-{4-[6-(2-chlorophenyl)furo[2,3-d]pyrimidin-4-yl]-3-(4-fluorophenyl)-1H-pyrazol-1-yl}-2-methylpropan-2-ol]			
0.252 nM	1600 nM	20.6 nM	14.1 nM	COc1ncccc1-c1cc2c(-c3cn(CC(C)(C)O)nc3-c3ccc(F)cc3)ncnc2o1 [Example 271, 1-{3-(4-fluorophenyl)-4-[6-(2-methoxypyridin-3-yl)furo[2,3-d]pyrimidin-4-yl]-1H-pyrazol-1-yl}-2-methylpropan-2-ol]			
0.207 nM	551 nM	13.4 nM	11.9 nM	Cn1ccc(-c2cc3c(-c4cn(CC(C)(C)O)nc4-c4ccc(F)cc4)ncnc3o2)n1 [Example 275, 1-{3-(4-fluorophenyl)-4-[6-(1-methyl-1H-pyrazol-3-yl)furo[2,3-d]pyrimidin-4-yl]-1H-pyrazol-1-yl}-2-methylpropan-2-ol]			
0.07 nM	677 nM	19 nM	13.5 nM	COc1ccc(-c2cc3c(-c4cn(CC(C)(C)O)nc4-c4ccc(F)cc4)ncnc3o2)nc1 [Example 276, 1-{3-(4-fluorophenyl)-4-[6-(5-methoxypyridin-2-yl)furo[2,3-d]pyrimidin-4-yl]-1H-pyrazol-1-yl}-2-methylpropan-2-ol]			
0.332 nM	1500 nM	74.4 nM	40 nM	CC(C)(O)Cn1cc(-c2ncnc3oc(-c4ccc(F)cn4)cc23)c(-c2ccc(F)cc2)n1 [Example 277, 1-{3-(4-fluorophenyl)-4-[6-(5-fluoropyridin-2-yl)furo[2,3-d]pyrimidin-4-yl]-1H-pyrazol-1-yl}-2-methylpropan-2-ol]			

The remaining lines, values behind:

SMILES	IC50 [1]	IC50 (Ba/F3_EGFR WT cells; [2])	IC50 (BaF3_EGFR LR/CS cells; [3])	IC50 (BaF3_EGFR d19/CS cells; [4])	IC50 (Ba/F3_EGFR WT cells; 72 h)	IC50 (BaF3_EGFR LR/CS cells; 72 h)	IC50 (BaF3_EGFR d19/CS cells; 72 h)
Cn1cnc(-c2cc3c(-c4cn(CCC(F)F)nc4-c4ccc(F)cc4)ncnc3o2)c1 [Example 263, 4-[1-(3,3-difluoropropyl)-3-(4-fluorophenyl)-1H-pyrazol-4-yl]-6-(1-methyl-1H-imidazol-4-yl)furo[2,3-d]pyrimidine]	0.153 nM	235 nM	2.36 nM	6.17 nM			
Cn1cnc(-c2cc3c(-c4cn([C@H]5C[C@@H](F)C5)nc4-c4ccc(F)cc4)ncnc3o2)c1 [Example 264, 4-{1-[(1s,3s)-3-fluorocyclobutyl]-3-(4-fluorophenyl)-1H-pyrazol-4-yl}-6-(1-methyl-1H-imidazol-4-yl)furo[2,3-d]pyrimidine]	0.135 nM	448 nM	6.54 nM	8.85 nM			
Cn1cnc(-c2cc3c(-c4cn(CCC#N)nc4-c4ccc(F)cc4)ncnc3o2)c1 [Example 265, 3-{3-(4-fluorophenyl)-4-[6-(1-methyl-1H-imidazol-4-yl)furo[2,3-d]pyrimidin-4-yl]-1H-pyrazol-1-yl}propanenitrile]	0.078 nM	69.9 nM	1.43 nM	1.46 nM			
Cn1cnc(-c2cc3c(-c4cn(CC(F)(F)CO)nc4-c4ccc(F)cc4)ncnc3o2)c1 [Example 266, 2,2-difluoro-3-{3-(4-fluorophenyl)-4-[6-(1-methyl-1H-imidazol-4-yl)furo[2,3-d]pyrimidin-4-yl]-1H-pyrazol-1-yl}propan-1-ol]	0.094 nM	135 nM	2.13 nM	2.5 nM			
Cn1ncc(-c2cc3c(-c4cn(CC(C)(C)O)nc4-c4ccc(F)cc4)ncnc3o2)c1C(F)F [Example 267, 1-[4-{6-[5-(difluoromethyl)-1-methyl-1H-pyrazol-4-yl]furo[2,3-d]pyrimidin-4-yl}-3-(4-fluorophenyl)-1H-pyrazol-1-yl]-2-methylpropan-2-ol]	0.185 nM	688 nM	22.2 nM	16 nM			
N#CCCn1cc(-c2ncnc3oc(-c4cccnc4)cc23)c(-c2ccc(F)cc2)n1 [Example 268, 3-{3-(4-fluorophenyl)-4-[6-(pyridin-3-yl)furo[2,3-d]pyrimidin-4-yl]-1H-pyrazol-1-yl}propanenitrile]	0.104 nM	414 nM	16.5 nM	13.3 nM			
N#CCCn1cc(-c2ncnc3oc(-c4ccccn4)cc23)c(-c2ccc(F)cc2)n1 [Example 269, 3-{3-(4-fluorophenyl)-4-[6-(pyridin-2-yl)furo[2,3-d]pyrimidin-4-yl]-1H-pyrazol-1-yl}propanenitrile]	0.082 nM	392 nM	8.63 nM	7.72 nM			
Cn1cnc(-c2cc3c(-c4cn([C@H]5C[C@H](C#N)C5)nc4-c4ccc(F)cc4)ncnc3o2)c1 [Example 270, (1r,3r)-3-{3-(4-fluorophenyl)-4-[6-(1-methyl-1H-imidazol-4-yl)furo[2,3-d]pyrimidin-4-yl]-1H-pyrazol-1-yl}cyclobutane-1-carbonitrile]	0.227 nM	134 nM	1.88 nM	1.32 nM			
Cc1c(-c2cc3c(-c4cn(CC(C)(C)O)nc4-c4ccc(F)cc4)ncnc3o2)ncn1C [Example 272, 1-{4-[6-(1,5-dimethyl-1H-imidazol-4-yl)furo[2,3-d]pyrimidin-4-yl]-3-(4-fluorophenyl)-1H-pyrazol-1-yl}-2-methylpropan-2-ol]	0.486 nM				668 nM	13.5 nM	15.7 nM
Cn1cnc(-c2cc3c(-c4cn([C@H]5C[C@H](O)C5)nc4-c4ccc(F)cc4)ncnc3o2)c1 [Example 278, (1r,3r)-3-{3-(4-fluorophenyl)-4-[6-(1-methyl-1H-imidazol-4-yl)furo[2,3-d]pyrimidin-4-yl]-1H-pyrazol-1-yl}cyclobutan-1-ol]	0.123 nM	272 nM	5.14 nM	4.31 nM			
Cc1nn(C)cc1-c1cc2c(-c3cn([C@H]4C[C@H](C#N)C4)nc3-c3ccc(F)cc3)ncnc2o1 [Example 279, (1r,3r)-3-{4-[6-(1,3-dimethyl-1H-pyrazol-4-yl)furo[2,3-d]pyrimidin-4-yl]-3-(4-fluorophenyl)-1H-pyrazol-1-yl}cyclobutane-1-carbonitrile]	0.106 nM	476 nM	8.89 nM	5.64 nM			
Cc1nn(C)c(C(F)F)c1-c1cc2c(-c3cn(CC(C)(C)O)nc3-c3ccc(F)cc3)ncnc2o1 [Example 280, 1-[4-{6-[5-(difluoromethyl)-1,3-dimethyl-1H-pyrazol-4-yl]furo[2,3-d]pyrimidin-4-yl}-3-(4-fluorophenyl)-1H-pyrazol-1-yl]-2-methylpropan-2-ol]	0.288 nM	857 nM	38.2 nM	31.7 nM			
CC(C)(O)Cn1cc(-c2ncnc3oc(-c4cccc(F)n4)cc23)c(-c2ccc(F)cc2)n1 [Example 281, 1-{3-(4-fluorophenyl)-4-[6-(6-fluoropyridin-2-yl)furo[2,3-d]pyrimidin-4-yl]-1H-pyrazol-1-yl}-2-methylpropan-2-ol]	0.425 nM				1840 nM	80.7 nM	57.1 nM
